From the supplement of paper PMC10307832

Legend:
Assay in all cases: relative viability (nuclei count vs DMSO), 5 days (fraction); higher = more cells survive
BEN = tested on: BEN
Procedure, shortened: (§1)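 Medians of duplicate plates are given as relative viability. That measure is the nuclei count in treated wells divided by the count in vehicle wells. Counts were taken on 4× images of lung cancer cell lines in 1536-well plates, 5 days after pin-tool dosing the day after seeding with one drug alone or a fixed anchor-drug dose plus five library-drug doses (not always all listed) in √10 steps.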

HCC-15 = tested on: HCC-15
Procedure, shortened: as §1

NCI-H1651 = tested on: NCI-H1651
Procedure, shortened: as §1

HCC-78 = tested on: HCC-78
Procedure, shortened: as §1

NCI-H358 = tested on: NCI-H358
Procedure, shortened: as §1

ChaGo-K-1 = tested on: ChaGo-K-1
Procedure, shortened: as §1

LXF-289 = tested on: LXF-289
Procedure, shortened: as §1

H3255 = tested on: H3255
Procedure, shortened: as §1

NCI-H650 = tested on: NCI-H650
Procedure, shortened: as §1

LK-2 = tested on: LK-2
Procedure, shortened: as §1

NCI-H596 = tested on: NCI-H596
Procedure, shortened: as §1

SK-MES-1 = tested on: SK-MES-1
Procedure, shortened: as §1

LC-2-ad = tested on: LC-2-ad
Procedure, shortened: as §1

NCI-H2087 = tested on: NCI-H2087
Procedure, shortened: as §1

UMC-11 = tested on: UMC-11
Procedure, shortened: as §1

NCI-H322M = tested on: NCI-H322M
Procedure, shortened: as §1

NCI-H838 = tested on: NCI-H838
Procedure, shortened: as §1

LCLC-97TM1 = tested on: LCLC-97TM1
Procedure, shortened: as §1

LU99A = tested on: LU99A
Procedure, shortened: as §1

NCI-H661 = tested on: NCI-H661
Procedure, shortened: as §1

NCI-H1944 = tested on: NCI-H1944
Procedure, shortened: as §1

NCI-H2342 = tested on: NCI-H2342
Procedure, shortened: as §1

NCI-H1666 = tested on: NCI-H1666
Procedure, shortened: as §1

PC-3 [JPC-3] = tested on: PC-3 [JPC-3]
Procedure, shortened: as §1

`COc1cc(N2CCC(C(N)=O)CC2)ccc1Nc1nc(N)c(Cl)c(Nc2ccccc2S(=O)(=O)C(C)C)n1` [HG-5-88-01] + COc1cccc2cc(-c3nc([C@H]4CC[C@H](C(=O)O)CC4)n4ncnc(N)c34)[nH]c12 [OSI-027] (partner 0.5 µM) showed a relative viability (BEN; first compound 0.04 µM) of 0.305, a relative viability (BEN; first compound 0.1265 µM) of 0.312 and a relative viability (BEN; first compound 0.4 µM) of 0.262. The relative viability (BEN; first compound 1.265 µM) was 0.3, the relative viability (BEN; first compound 4 µM) was 0.262 and the relative viability (HCC-15; first compound 0.04 µM) was 0.683. It also gave a relative viability (HCC-15; first compound 0.1265 µM) of 0.8, a relative viability (HCC-15; first compound 0.4 µM) of 0.539 and a relative viability (HCC-15; first compound 1.265 µM) of 0.547. It also gave a relative viability (HCC-15; first compound 4 µM) of 0.326, a relative viability (NCI-H1651; first compound 0.04 µM) of 0.748 and a relative viability (NCI-H1651; first compound 0.1265 µM) of 0.696. It also gave a relative viability (NCI-H1651; first compound 0.4 µM) of 0.605, a relative viability (NCI-H1651; first compound 1.265 µM) of 0.627 and a relative viability (NCI-H1651; first compound 4 µM) of 0.58. The relative viability (HCC-78; first compound 0.04 µM) was 0.359, the relative viability (HCC-78; first compound 0.1265 µM) was 0.293 and the relative viability (HCC-78; first compound 0.4 µM) was 0.349. It also gave a relative viability (HCC-78; first compound 1.265 µM) of 0.27, a relative viability (HCC-78; first compound 4 µM) of 0.301 and a relative viability (NCI-H358; first compound 0.04 µM) of 0.692. It also gave a relative viability (NCI-H358; first compound 0.1265 µM) of 0.673, a relative viability (NCI-H358; first compound 0.4 µM) of 0.588 and a relative viability (NCI-H358; first compound 1.265 µM) of 0.234. It also gave a relative viability (NCI-H358; first compound 4 µM) of 0.133, a relative viability (ChaGo-K-1; first compound 0.04 µM) of 0.627 and a relative viability (ChaGo-K-1; first compound 0.1265 µM) of 0.649. The relative viability (ChaGo-K-1; first compound 0.4 µM) was 0.645, the relative viability (ChaGo-K-1; first compound 1.265 µM) was 0.605 and the relative viability (ChaGo-K-1; first compound 4 µM) was 0.47. For the same compound, the relative viability (LXF-289; first compound 0.04 µM) was 0.755, the relative viability (LXF-289; first compound 0.1265 µM) was 0.815 and the relative viability (LXF-289; first compound 0.4 µM) was 0.77. The relative viability (LXF-289; first compound 1.265 µM) was 0.635, the relative viability (LXF-289; first compound 4 µM) was 0.337 and the relative viability (H3255; first compound 0.04 µM) was 0.558. It also gave a relative viability (H3255; first compound 0.1265 µM) of 0.538, a relative viability (H3255; first compound 0.4 µM) of 0.643 and a relative viability (H3255; first compound 4 µM) of 0.432. For the same compound, the relative viability (NCI-H650; first compound 0.04 µM) was 0.492, the relative viability (NCI-H650; first compound 0.1265 µM) was 0.476 and the relative viability (NCI-H650; first compound 0.4 µM) was 0.431. For the same compound, the relative viability (NCI-H650; first compound 1.265 µM) was 0.443, the relative viability (NCI-H650; first compound 4 µM) was 0.319 and the relative viability (LK-2; first compound 0.04 µM) was 0.173. It also gave a relative viability (LK-2; first compound 0.1265 µM) of 0.189, a relative viability (LK-2; first compound 0.4 µM) of 0.15 and a relative viability (LK-2; first compound 1.265 µM) of 0.173. The relative viability (LK-2; first compound 4 µM) was 0.175, the relative viability (NCI-H596; first compound 0.04 µM) was 0.61 and the relative viability (NCI-H596; first compound 0.1265 µM) was 0.693. For the same compound, the relative viability (NCI-H596; first compound 0.4 µM) was 0.729, the relative viability (NCI-H596; first compound 1.265 µM) was 0.59 and the relative viability (NCI-H596; first compound 4 µM) was 0.393. The relative viability (SK-MES-1; first compound 0.04 µM) was 0.603, the relative viability (SK-MES-1; first compound 0.1265 µM) was 0.569 and the relative viability (SK-MES-1; first compound 0.4 µM) was 0.492. The relative viability (SK-MES-1; first compound 1.265 µM) was 0.331, the relative viability (SK-MES-1; first compound 4 µM) was 0.4 and the relative viability (LC-2-ad; first compound 0.04 µM) was 0.819. The relative viability (LC-2-ad; first compound 0.1265 µM) was 0.944, the relative viability (LC-2-ad; first compound 0.4 µM) was 0.826 and the relative viability (LC-2-ad; first compound 1.265 µM) was 0.558. It also gave a relative viability (LC-2-ad; first compound 4 µM) of 0.416, a relative viability (NCI-H2087; first compound 0.04 µM) of 0.521 and a relative viability (NCI-H2087; first compound 0.1265 µM) of 0.542. It also gave a relative viability (NCI-H2087; first compound 0.4 µM) of 0.505, a relative viability (NCI-H2087; first compound 1.265 µM) of 0.349 and a relative viability (NCI-H2087; first compound 4 µM) of 0.215. The relative viability (UMC-11; first compound 0.04 µM) was 0.347, the relative viability (UMC-11; first compound 0.1265 µM) was 0.521 and the relative viability (UMC-11; first compound 1.265 µM) was 0.464. For the same compound, the relative viability (UMC-11; first compound 4 µM) was 0.334, the relative viability (NCI-H322M; first compound 0.04 µM) was 0.501 and the relative viability (NCI-H322M; first compound 0.1265 µM) was 0.481. It also gave a relative viability (NCI-H322M; first compound 0.4 µM) of 0.448, a relative viability (NCI-H322M; first compound 4 µM) of 0.293 and a relative viability (NCI-H838; first compound 0.04 µM) of 0.359. For the same compound, the relative viability (NCI-H838; first compound 0.1265 µM) was 0.333, the relative viability (NCI-H838; first compound 0.4 µM) was 0.238 and the relative viability (NCI-H838; first compound 1.265 µM) was 0.247. It also gave a relative viability (NCI-H838; first compound 4 µM) of 0.173, a relative viability (LCLC-97TM1; first compound 0.04 µM) of 0.445 and a relative viability (LCLC-97TM1; first compound 0.1265 µM) of 0.521. It also gave a relative viability (LCLC-97TM1; first compound 0.4 µM) of 0.238, a relative viability (LCLC-97TM1; first compound 1.265 µM) of 0.305 and a relative viability (LCLC-97TM1; first compound 4 µM) of 0.131. For the same compound, the relative viability (LU99A; first compound 0.04 µM) was 0.245, the relative viability (LU99A; first compound 0.1265 µM) was 0.316 and the relative viability (LU99A; first compound 0.4 µM) was 0.286. It also gave a relative viability (LU99A; first compound 1.265 µM) of 0.279, a relative viability (LU99A; first compound 4 µM) of 0.263 and a relative viability (NCI-H661; first compound 0.04 µM) of 0.659. For the same compound, the relative viability (NCI-H661; first compound 0.1265 µM) was 0.709, the relative viability (NCI-H661; first compound 0.4 µM) was 0.684 and the relative viability (NCI-H661; first compound 1.265 µM) was 0.428. The relative viability (NCI-H661; first compound 4 µM) was 0.569, the relative viability (NCI-H1944; first compound 0.04 µM) was 0.386 and the relative viability (NCI-H1944; first compound 0.1265 µM) was 0.391. The relative viability (NCI-H1944; first compound 0.4 µM) was 0.422, the relative viability (NCI-H1944; first compound 1.265 µM) was 0.297 and the relative viability (NCI-H1944; first compound 4 µM) was 0.251. It also gave a relative viability (NCI-H2342; first compound 0.04 µM) of 0.607, a relative viability (NCI-H2342; first compound 0.1265 µM) of 0.527 and a relative viability (NCI-H2342; first compound 0.4 µM) of 0.611. For the same compound, the relative viability (NCI-H2342; first compound 1.265 µM) was 0.485, the relative viability (NCI-H2342; first compound 4 µM) was 0.563 and the relative viability (NCI-H1666; first compound 0.04 µM) was 0.866. For the same compound, the relative viability (NCI-H1666; first compound 0.1265 µM) was 0.859, the relative viability (NCI-H1666; first compound 0.4 µM) was 0.692 and the relative viability (NCI-H1666; first compound 1.265 µM) was 0.605. It also gave a relative viability (NCI-H1666; first compound 4 µM) of 0.532, a relative viability (PC-3 [JPC-3]; first compound 0.04 µM) of 0.701 and a relative viability (PC-3 [JPC-3]; first compound 0.1265 µM) of 0.759. The relative viability (PC-3 [JPC-3]; first compound 0.4 µM) was 0.721, the relative viability (PC-3 [JPC-3]; first compound 1.265 µM) was 0.543 and the relative viability (PC-3 [JPC-3]; first compound 4 µM) was 0.577.
